Results: patent US11618883B2, “Method for producing retinal pigment epithelial cells” (SUMITOMO PHARMA CO., LTD., priority 2017, dated 2023)

How the values were obtained:
[1] = system: human iPS cells (QHJI01 line); experiment: Production of RPE cells from iPS cells with a ROCK inhibitor or caspase inhibitor in the second step; visual observation of brown-black cell population; assay type: cell-based
[2] = system: human iPS cells (201B7, 1231A3, Ff-I01, QHJI01 lines); experiment: Production of RPE cells including MEK inhibitor or FGF receptor inhibitor treatment step (first step); observation of brown-black cell population; assay type: cell-based; conditions: for concentrations at which emergence of a brown-black cell population could be confirmed over a wide area: first step 6 days, QHJI01 line, day 36 and day 49 of culture; for emergence of RPE cells showing typical characteristics of RPE cell: 38 to 47 days of culture
Source text: In one embodiment, to study the effect of the FGF receptor inhibitor in a medium free of a factor for maintaining undifferentiated state (bFGF), STEMSURE™ hPSC Medium Δ (Wako Pure Chemical Industries, Ltd.) (hereinafter STEMSURE™ hPSC Medium Δ w/o bFGF) not added with bFGF was used.
2014 Jan. 8; 4: 3594”. The medium used was STEMFIT™ AK03N medium (Ajinomoto Co., Inc.) (hereinafter AK03N medium).

[3] = system: human iPS cells (1231A3 line); experiment: Production of RPE cells from iPS cells with a ROCK inhibitor in the second step; visual observation of brown-black cell population; assay type: cell-based; conditions: for concentration at which emergence of a brown-black cell population could be visually confirmed: second step
Description: 2014 Jan. 8; 4: 3594”. The medium used was […] A[…] medium (Ajinomoto Co., Inc.) (hereinafter AK03 medium). […] On the next day of seeding, FGF receptor inhibitor PD173074 (SIGMA) (final concentration 100 nM) was added to the A[…] medium (start of the first step), the medium was exchanged with A[…] medium added with an FGF receptor inhibitor every other day, and the cells were exposed to the FGF receptor inhibitor for 6 days in total (completion of the first step). […] On the first day of culture, A[…] (final concentration 10 μM) or A[…] medium without addition of Y-27632 as a comparison target was used. […] 2014 Jan. 8; 4: 3594”. The medium used was […] A[…] medium (Ajinomoto Co., Inc.) (hereinafter A[…] medium). […] On the next day of seeding, FGF receptor inhibitor PD173074 (SIGMA) (final concentration 100 nM) or MEK inhibitor PD0325901 (SIGMA) (final concentration 1 μM) was added to the A[…] medium (start of the first step), the medium was exchanged with A[…] medium added with an FGF receptor inhibitor or MEK inhibitor every other day, and the cells were exposed to FGF receptor inhibitor or MEK inhibitor for 6 days in total (completion of the first step). […] In the case of 1231A3 line, on the first day of culture, A[…] to a final concentration of 1 μM, 3 μM, 10 μM, 30 μM or 100 μM or, as a comparison target, A[…] medium without addition of Y-27632 was used. […] 2014 Jan. 8; 4: 3594”. The medium used was […] A[…] medium (Ajinomoto Co., Inc.) (hereinafter A[…] medium). […] On the next day of seeding, FGF receptor inhibitor PD173074 (SIGMA) (final concentration 100 nM) was added to the A[…] medium (start of the first step), the medium was exchanged every other day using A[…] medium added with FGF receptor inhibitor, and the cells were exposed to FGF receptor inhibitor for 6 days in total (completion of the first step). […] In the case of 1231A3 line, on the first day of culture, A[…] medium added with ROCK inhibitor Fasudil (Wako Pure Chemical Industries, Ltd.) to a final concentration of 10 μM, 30 μM or 100 μM or, as a comparison target, A[…] medium without addition of Fasudil was used.

[4] = system: human iPS cells (QHJI01 line); experiment: Differentiation induction effect of Nodal and/or Wnt signal transduction pathway inhibitor in the second step; assay type: cell-based; conditions: for emergence of cells showing typical characteristics of RPE cell: second step days 1-12 with 10 μM Y-27632 plus 5 μM SB-431542 and/or 3 μM CKI-7, first step 1 μM PD0325901, day 43
Description: Production of retinal pigment epithelial (RPE) cells including an MEK inhibitor treatment step was performed as follows. iPS cells under culture for maintaining undifferentiated state were treated with 0.5×TRYPLE™ Select cell dissociation solution (mixture of equal amounts of TRYPLE™ Select cell dissociation solution (Life Technologies) and 0.5 mM EDTA/PBS(−)), dissociated using a cell scraper, dispersed to single cells by pipetting, seeded in a 6-well culture plate coated with IMATRIX™-511 laminin 511 E8 fragment (Nippi) (0.5 μg/cm^2) at 2.0×10^4 cells per 1 well and cultured in a ROCK inhibitor [10 μM Y-27632 (Wako Pure Chemical Industries, Ltd.)]-containing AK03N medium under 37° C., 5% CO2 conditions. On the next day of seeding, PD0325901 (SIGMA) (final concentration 1 μM) as MEK inhibitor was added to the AK03N medium (start of the first step) and the cells were exposed thereto for 6 days (completion of the first step). Thereafter, the cells were treated with 0.5×TRYPLE™ Select cell dissociation solution, dissociated using a cell scraper, dispersed to single cells by pipetting, seeded in a 12-well culture plate coated with IMATRIX™-511 laminin 511 E8 fragment (0.5 μg/cm^2) at 0.8×10^5 cells per 1 well and cultured under 37° C., 5% CO2 conditions (start of the second step). In the second step, the following 3 kinds of media were used. […]

RPE65, BEST1, CRALBP = experiment: RT-PCR of retinal pigment epithelial cell markers after MEK inhibitor or FGF receptor inhibitor treatment step; assay type: cell-based, human; conditions: first step 6 days (1 μM PD0325901 or 100 nM PD173074); 1231A3 line; day 43; bands very thin when untreated
Description: 2014 Jan. 8; 4: 3594”. The medium used was […] A[…] medium (Ajinomoto Co., Inc.) (hereinafter A[…] medium). […] After observation on day 43 of culture, the cells were collected, RNA was extracted and RT-PCR was performed. RNEASYTM Micro Kit (QIAGEN) was used for RNA extraction, Oligo(dT)12-18Primer (Invitrogen) and SUPERSCRIPTTM III Reverse Transcriptase (Invitrogen) were used for reverse transcription reaction, and BLEND TAQTM-Plus-(TOYOBO) was used for PCR. The primer sequences of RPE65, BEST1, CRLBP, GAPDH are as described below. […] NO: 1), […] NO: 2), […] NO: 3), […] NO: 4), CRALBP-[…] NO: 5), CRALBP-[…] NO: 6), […] NO: 7), […] NO: 8). The number of cycles of the PCR reaction was 30 cycles for RPE65, BEST1, GAPDH, and 35 cycles for CRALBP. PCR products were detected as a single band by agarose gel electrophoresis at near 369 bp for RPE65, near 261 bp for BEST1, near 341 bp for CRALBP, and near 452 bp for GAPDH. As a positive control, primary human RPE (hRPE) was used and, as a negative control, iPS cells (undifferentiated iPSC) cultured under conditions for maintaining undifferentiated state were used.

[5] = first step 6 days: 1 μM PD0325901, 1.5, 3, 6 μM PD184352, 5, 10 μM U0126, 0.3 μM TAK-733, 0.3 μM AZD-8330, QHJI01 and 1231A3 lines, day 49 and day 50
[6] = first step 6 days (1 μM PD0325901 or 100 nM PD173074), 201B7 and 1231A3 lines
[7] = first step 6 days (1 μM PD0325901 or 100 nM PD173074), 1231A3 line, day 43 of culture
[8] = first step 6 days (1 μM PD0325901 or 100 nM PD173074), Ff-I01 and QHJI01 lines, day 43 of culture
[9] = first step 6 days: 100 nM PD173074, 5, 10, 20 μM SU5402, QHJI01 and 1231A3 lines, day 49 of culture

COC(=O)C[C@H](NC(=O)[C@H](C)NC(=O)[C@@H](NC(=O)OCc1ccccc1)C(C)C)C(=O)CF (racemic) [Z-VAD-FMK, benzyloxycarbonyl-Val-Ala-DL-Asp(OMe)-fluoromethylketone]
emergence of a brown-black cell population ([1]; 20 μM in second step, 2.0×10^6 cells per well, first step MEK inhibitor, day 65 or 67 of culture): could be visually confirmed

Cc1cc(C(=O)NOCCO)c(Nc2ccc(I)cc2F)n(C)c1=O [AZD-8330, 2-(2-fluoro-4-iodophenylamino)-N-(2-hydroxyethoxy)-1,5-dimethyl-6-oxo-1,6-dihydropyridine-3-carboxamide]
emergence of a brown-black cell population [2, 5]: could be confirmed over a wide area

O=S(=O)(c1cccc2cnccc12)N1CCCNCC1 [Fasudil, 1-(5-oquinolinesulfonyl)homopiperazine]
concentration at which emergence of a brown-black cell population could be visually confirmed ([3]; tested 10, 30, 100 μM, 2.0×10^6 cells per well, first step FGF receptor inhibitor, day 41 of culture): not less than 10 μM
emergence of a brown-black cell population ([1]; 10 μM in second step, 1.0×10^6 cells per well, first step FGF receptor inhibitor, day 48 of culture): could be visually confirmed

NC(=O)c1ccc(-c2nc(-c3ccc4c(c3)OCO4)c(-c3ccccn3)[nH]2)cc1 [NODALi, 4-[4-(1,3-Benzodioxol-5-yl)-5-(pyridin-2-yl)-1H-imidazol-2-yl]benzamide]
emergence of cells showing typical characteristics of RPE cell [4]: same level

CCN(CC)CCCCNc1ncc2cc(-c3cc(OC)cc(OC)c3)c(NC(=O)NC(C)(C)C)nc2n1 [PD173074, N-[2-[[4-(Diethylamino)butyl]amino]-6-(3,5-dimethoxyphenyl)pyrido[2,3-d]pyrimidin-7-yl]-N′-(1,1-dimethylethyl)urea]
emergence of a brown-black cell population ([2]; PD173074 100 nM, 6 days first step, AK03, ESSENTIAL 8 or STEMSURE hPSC Medium Δ w/o bFGF, 201B7 and/or 1231A3 line, 38 to 42 days of culture): could be confirmed over a wide area
concentrations at which emergence of a brown-black cell population could be confirmed over a wide area ([2]; PD173074, all concentrations studied): 25 to 400 nM
emergence of RPE cells showing typical characteristics of RPE cell [2, 6]: could be confirmed
emergence of a brown-black cell population [2, 7]: could be confirmed over a wide area
emergence of a brown-black cell population [2, 8]: could be confirmed over a wide area
emergence of a brown-black cell population [2, 9]: could be confirmed over a wide area
RT-PCR bands of retinal pigment epithelial cell markers RPE65, BEST1, CRALBP (RPE65, BEST1, CRALBP): clear bands could be confirmed

O=C(NOCC1CC1)c1ccc(F)c(F)c1Nc1ccc(I)cc1Cl [PD184352, (2-[(2-Chloro-4-iodophenyl)amino]-N-cyclopropylmethoxy)-3,4-difluorobenzamide]
emergence of a brown-black cell population [2, 5]: could be confirmed over a wide area

O=C(NOC[C@H](O)CO)c1ccc(F)c(F)c1Nc1ccc(I)cc1F [PD0325901, N-[(2R)-2,3-Dihydroxypropoxy]-3,4-difluoro-2-[(2-fluoro-4-iodophenyl)amino]-benzamide]
emergence of a brown-black cell population ([2]; 1 μM PD0325901, exposure for 3 days and 6 days, 1231A3 line, day 37 of culture): could be confirmed over a wide area
emergence of colored cell population ([2]; 1 μM PD0325901, exposure for 13 days, 1231A3 line, day 37 of culture): sufficient emergence of colored cell population was also confirmed
cells showing typical characteristics of RPE cell ([2]; 1 μM PD0325901, exposure for one day, 1231A3 line, day 37 of culture): almost no cell
emergence of a brown-black cell population ([2]; PD0325901 1 μM (AK03 medium) or 0.03 μM (ESSENTIAL8 medium), 6 days first step, 201B7 and 1231A3 lines, 38 to 42 days of culture): could be confirmed over a wide area
concentrations at which emergence of a brown-black cell population could be confirmed over a wide area ([2]; PD0325901, all concentrations studied): 250 to 4000 nM
emergence of RPE cells showing typical characteristics of RPE cell [2, 6]: could be confirmed
emergence of a brown-black cell population [2, 7]: could be confirmed over a wide area
emergence of a brown-black cell population [2, 8]: could be confirmed over a wide area
emergence of a brown-black cell population [2, 5]: could be confirmed over a wide area
RT-PCR bands of retinal pigment epithelial cell markers RPE65, BEST1, CRALBP (RPE65, BEST1, CRALBP): clear bands could be confirmed

Cc1c[nH]c(C=C2C(=O)Nc3ccccc32)c1CCC(=O)O [SU5402, 2-[(1,2-Dihydro-2-oxo-3H-indol-3-ylidene)methyl]-4-methyl-1H-pyrrole-3-propanoic acid]
emergence of a brown-black cell population [2, 9]: could be confirmed over a wide area

N#CC(=C(N)Sc1ccccc1N)C(C#N)=C(N)Sc1ccccc1N [U0126, 1,4-Diamino-2,3-dicyano-1,4-bis[2-aminophenylthio]butadiene]
emergence of a brown-black cell population [2, 5]: could be confirmed over a wide area

NCCNS(=O)(=O)c1ccc(Cl)c2ccncc12 [WNTi, N-(2-Aminoethyl) chloroisoquinoline-8-sulfonamide]
brown-black area in the whole well ([4]; second step days 1-12, single agent 3 μM CKI-7 with 10 μM Y-27632, day 43): decreased
emergence of cells showing typical characteristics of RPE cell [4]: sufficient number of cells

C[C@@H](N)[C@H]1CC[C@H](C(=O)Nc2ccncc2)CC1 [Y-27632, trans-4-[(1R)-1-aminoethyl]-N-4-pyridinylcyclohexanecarboxamide]
emergence of a brown-black cell population ([3]; 10 μM in second step (days 1-13) after FGF receptor inhibitor (100 nM PD173074) first step, day 42 of culture): could be visually confirmed
concentration at which emergence of a brown-black cell population could be visually confirmed ([3]; tested 1-100 μM, first step FGF receptor inhibitor or MEK inhibitor, day 48 of culture): not less than 10 μM
exposure period at which emergence of a brown-black cell population could be visually confirmed ([1]; 10 μM in second step, tested 3-20 days, first step MEK inhibitor, day 49 of culture): not less than 6 days
emergence of a brown-black cell population ([1]; 10 μM, 3 days of exposure in second step, first step MEK inhibitor, day 49 of culture): confirmed only slightly
emergence of a brown-black cell population ([1]; low concentration (1 μM) in second step, 2.0×10^6 cells per well (10 times general number), first step FGF receptor inhibitor or MEK inhibitor, day 50): could be visually confirmed
concentration at which emergence of a brown-black cell population could be visually confirmed ([1]; second step, tested 1-100 μM, first step FGF receptor inhibitor or MEK inhibitor, day 50 of culture): not less than 3 μM
